# No end group written: not given here.
# Columns and labels:
# MDA-MB-468 cells [1] = experiment: MTT viability, EJ1 in combination with pathway inhibitors or ROS scavenger; type: cell-based; settings: MDA-MB-468, 20 μmol/l EJ1 plus inhibitor
# Experimental: (a) MDA-MB-468 cells were treated with either 20 μmol/l CP (A-D) or 20 μmol/l EJ1 (E-H) for 0 minutes (A, E), 15 minutes (B, F), 60 minutes (C, G), or 16 hours (D, H). Arrows indicate membrane blebs and arrowheads indicate intracellular vacuoles. (b) BxPC3 cells were serum starved overnight, then treated with 20 μmol/l EJ1 and 50 ng/ml Texas-Red-labeled EGF, and imaged for 30 minutes with an Olympus IX71 deconvolution microscope. Panels A-F are bright field images, D′-F′ are red channel images (Texas-Red-labeled EGF). Arrowheads indicate locations of EGF accumulation on membrane protrusions. (c) Diagram depicts Ca^2+/CaM-regulated signaling pathway, and inhibitors acting at different targets are indicated. (d) MDA-MB-468 cells were pretreated with 50 μmol/l W-13 (D-F), 10 μmol/l ML-7 (G-I), or 10 μmol/l Y-27632 (J-L) in complete medium at 37° C. for 30 minutes and then treated with vehicle, 20 μmol/l CP, or 20 μmol/l EJ1 in combination with W-13, ML-7, or Y-27632 in complete medium at 37° C. for 15 minutes. Images represent the bright field images. Arrows indicate membrane blebbing. (e) MDA-MB-468 cells were untreated (UNTX) or treated with water (Vehicle), 20 μmol/l EJ1, 10 μmol/l Y-27632, or 10 μmol/l ML-7 alone or EJ1 in combination with Y-27632 or ML-7, and the viability was assessed by the MTT assay. **P<0.01 (Student's t-test). Error bars, mean±SD. (f) MDA-MB-468 cells were either in serum-free medium (SF) or stimulated with 100 ng/ml EGF (EGF) and then incubated with water (Vehicle), 20 μmol/l CP, 20 μmol/l EJ1, 2 μmol/l ionomycin, 50 μmol/l W-13, 100 μmol/l KN-93, or EJ1 in combination with ionomycin for 15 minutes. Lysates were immunoblotted with antibodies as indicated. (g) Stable, neomycin-selected NIH3T3 cell lines were created, expressing either Rac1 wild-type (Rac1-WT) or Rac1 constitutively active mutant (Rac1-Q61L). Cells were treated with water (Vehicle), 20 μmol/l CP, or 20 μmol/l EJ1, and the viability was assessed by MTT. ***P<0.001 (Student's t-test). Error bars, mean±SD.
# (a) MDA-MB-468 cells were incubated in serum-free media with 200 nmol/l MitoTracker Red CMXRos and 5 μg/ml Hoechst 33342 nuclear stain, followed by either 20 μmol/l CP (A-B′) or 20 μmol/l EJ1 (C-D′), and imaged at 0 minutes (A, A′; and C, C′) or at 5 minutes (B, B′; and D, D′). (b) MDA-MB-468 cells were incubated with 1 μmol/l JC-1, followed by 20 μmol/l CP, 20 μmol/l EJ1, or 50 μmol/l CCCP. Results were calculated as the ratio of the 514/590 nm to 514/529 nm fluorescences and the ratio for CP-treated sample was set as 1. *P<0.05, Student's t-test. Error bars, mean±SD. […] Cells were then sorted by flow cytometer and analyzed by Cellquest Pro 4.0 software. The results are expressed as the percentage of DCFH fluorescence-positive cells. *P<0.05, Student's t-test. […]
# MDA-MB-468 cells [2] = experiment: Membrane blebbing / cell morphology, bright field imaging; type: cell-based; settings: for inhibition of EJ1-induced membrane blebbing: 50 μmol/l W-13, 10 μmol/l ML-7, 10 μmol/l Y-27632 with 20 μmol/l EJ1
# Experimental: (a) MDA-MB-468 cells were treated with either 20 μmol/l CP (A-D) or 20 μmol/l EJ1 (E-H) for 0 minutes (A, E), 15 minutes (B, F), 60 minutes (C, G), or 16 hours (D, H). […] (b) BxPC3 cells were serum starved overnight, then treated with 20 μmol/l EJ1 and 50 ng/ml Texas-Red-labeled EGF, and imaged for 30 minutes with an Olympus IX71 deconvolution microscope. Panels A-F are bright field images, D′-F′ are red channel images (Texas-Red-labeled EGF). […] (c) Diagram depicts Ca^2+/CaM-regulated signaling pathway, and inhibitors acting at different targets are indicated. (d) MDA-MB-468 cells were pretreated with 50 μmol/l W-13 (D-F), 10 μmol/l ML-7 (G-I), or 10 μmol/l Y-27632 (J-L) in complete medium at 37° C. for 30 minutes and then treated with vehicle, 20 μmol/l CP, or 20 μmol/l EJ1 in combination with W-13, ML-7, or Y-27632 in complete medium at 37° C. for 15 minutes. Images represent the bright field images. […] Error bars, mean±SD. (f) MDA-MB-468 cells were either in serum-free medium (SF) or stimulated with 100 ng/ml EGF (EGF) and then incubated with water (Vehicle), 20 μmol/l CP, 20 μmol/l EJ1, 2 μmol/l ionomycin, 50 μmol/l W-13, 100 μmol/l KN-93, or EJ1 in combination with ionomycin for 15 minutes. Lysates were immunoblotted with antibodies as indicated. […] Error bars, mean±SD. (From Hart et al., 2013, Molecular Therapy 21(11):1996-2007, the disclosure of which is incorporated herein in its entirety.)
# Ca^2+/CaM signaling regulates many different cellular events, such as membrane dynamics, cell survival, mitochondrial function, and motility. We began by evaluating whether EJ1 was affecting membrane dynamics by treating MDA-MB-468 cells with either CP (FIG. 8) or EJ1 (FIG. 8) and examining cell morphology. […] Ca^2+/CaM signaling regulates many different downstream pathways, such as CaMKII and MLCK. CaMKII regulates cell proliferation, whereas MLCK phosphorylates myosin light chain (MLC) and regulates actinomyosin reorganization during membrane blebbing (as depicted in FIG. 8). To investigate whether EJ1-induced membrane blebbing was through the MLCK pathway, MDA-MB-468 cells were treated with vehicle, CP, or EJ1 alone (A-C) or in combination with the CaM inhibitor W-13 or the MLC phosphorylation inhibitors ML-7 and Y-27632 (D-L).
# MDA-MB-468 cells [3] = settings: for inhibitor effect on cell survival after three days of treatment: MDA-MB-468, 20 uM peptide (FIG. 1); for effect on cell viability (MTT): MDA-MB-468, 3 days of treatment (FIG. 6)
# Experimental: Inhibitor peptides were evaluated on their ability to inhibit growth of triple-negative breast cancer cells MDA-MB-468 (20 uM peptide treatment). […] SEQ ID NO: 13 is […] SEQ ID NO: 14 is […] SEQ ID NO: 15 is […] SEQ ID NO: 16 is […] SEQ ID NO: 17 is […] SEQ ID NO: 18 is […] SEQ ID NO: 19 is […] SEQ ID NO: 20 is […] SEQ ID NO: 21 is […] SEQ ID NO: 22 is […] SEQ ID NO: 23 is […] SEQ ID NO: 24 is […] SEQ ID NO: 25 is […]
# Peptide designations are indicated in the right column. Changes from EJ1 in EJ2-11 are denoted in the second column from the right. (d-j) Cell lines were treated daily with 20 μmol/l EJ1, 20 μmol/l CP, or vehicle (water) for 3 days unless otherwise noted, and cell viability was determined by the MTT assay. Growth rates for vehicle-treated cells were set to 100%, and CP and EJ1 rates were adjusted accordingly. *P<0.05, **P<0.01, ***P<0.001 (Student's t-test). Error bars, mean±SD. (From Hart et al., 2013, Molecular Therapy 21(11):1996-2007, the disclosure of which is incorporated herein in its entirety.)
# To do this, we created cell-penetrating peptides to act as dominant-negative “decoys,” thereby inhibiting endogenous jxm interactions. Peptides specific for jxm subdomains were synthesized downstream of the protein transduction domain-4 (PTD4; FIG. 6). Next, the effect of peptide treatment on cell viability was analyzed on the breast cancer cell line MDA-MB-468 by MTT (3-[4,5-dimethylthiazol-2-yl]-2,5-diphenyl tetra-zolium bromide) analysis after 3 days of treatment.
# Protein lysate preparation, immunoprecipitation, and western blotting were performed as described previously. For cross-linking, cells were first incubated according to manufacturer instructions with 3 μmol/l DMS, a membrane-permeable, noncleavable, cross-linking agent (Thermo Scientific, Waltham, Mass.). Cells were analyzed both by the MTT assay following manufacturer's instructions (Sigma) and using a U-Quant Spectrophotometer (Bio-TEK Instruments, Winooski, Vt.).
# [4] = test system: patient-derived glioma lines (BT145, BT147, GB16, GB7, GB42); experiment: Viability of patient-derived GBM cells; type: cell-based
# Text: FIG. 13A and FIG. 13B show treatment of patient-derived GBM cells with various EGFR inhibitor peptides.
# EGFR is amplified or mutated in more than 40% of glioblastoma multiforme (GBM) tumors. Referring to FIG. 13-14, inhibitor peptides of the present invention were used to treat GBM cells and tumors.
molecule,measurement,setting,value
Cn1cnc(=N)c2[nH]cnc21 [3-MA],effect of co-treatment on EJ1-induced loss of cell viability (MTT),MDA-MB-468 cells [1],not able to rescue
COc1cc2ncnc(Nc3cccc(Cl)c3)c2cc1OC [AG1478],membrane blebbing,"MDA-MB-468 cells [2]; EJ1 20 μmol/l, 15 minutes",No membrane blebbing was observed
O=S(=O)(c1cccc2c(I)cccc12)N1CCCNCC1 [ML-7],inhibition of EJ1-induced membrane blebbing,MDA-MB-468 cells [2],completely inhibited
same,effect of co-treatment on EJ1-induced loss of cell viability (MTT),MDA-MB-468 cells [1],significantly reduce the effects of EJ1
NCCCCNS(=O)(=O)c1ccc2c(Cl)cccc2c1 [W-13],inhibition of EJ1-induced membrane blebbing,MDA-MB-468 cells [2],completely inhibited
C[C@@H](N)[C@H]1CC[C@H](C(=O)Nc2ccncc2)CC1 [Y-27632],inhibition of EJ1-induced membrane blebbing,MDA-MB-468 cells [2],completely inhibited
same,effect of co-treatment on EJ1-induced loss of cell viability (MTT),MDA-MB-468 cells [1],significantly reduce the effects of EJ1
YARAAARQARAFMRDRHIVRDRTLRDLLQERE (Artificial peptide sequence related to EGFR juxtamembrane sequence) [EJ10],inhibitor effect on cell survival after three days of treatment,MDA-MB-468 cells [3],almost no inhibitor effect
same,effect on cell viability (MTT),MDA-MB-468 cells [3],completely ablated the effects on viability
YARAAARQARAFMRQRHIVRQRTLRQLLQERE [EJ11],effect on cell viability (MTT),MDA-MB-468 cells [3],only marginally blocked the antiproliferative effects of EJ1
YARAAARQARAFMRRRHIVRKRTL (Artificial peptide sequence related to EGFR juxtamembrane sequence) [EJ2],effect on cell viability (MTT),MDA-MB-468 cells [3],partial reduction
YARAAARQARAIVRKRTLRRLLQERE (Artificial peptide sequence related to EGFR juxtamembrane sequence) [EJ3],effect on cell viability (MTT),MDA-MB-468 cells [3],partial reduction
YARAAARQARALLQERELVEPLT (Artificial peptide sequence related to EGFR juxtamembrane sequence) [EJ6],effect on cell viability (MTT),MDA-MB-468 cells [3],No antiproliferative effect
YARAAARQARARDRHIVRDRTLRD (Artificial peptide sequence related to EGFR juxtamembrane sequence) [nlsCPv4],inhibitor effect on cell survival after three days of treatment,MDA-MB-468 cells [3],almost no inhibitor effect
YARAAARQARARRRHIVRKRTLRR (Artificial peptide sequence related to EGFR juxtamembrane sequence) [EJ4],effect on cell viability (MTT),MDA-MB-468 cells [3],No antiproliferative effect
YARAAARQARARTLRRLLQERE (Artificial peptide sequence related to EGFR juxtamembrane sequence) [EJ5],effect on cell viability (MTT),MDA-MB-468 cells [3],partial reduction
control peptide: control peptide compared to stapled EJ1 on patient-derived glioma lines (YARAAARQARAFMRDRHIVRDRTLRDLLQERE; Artificial peptide sequence related to EGFR juxtamembrane sequence) [reference compound],cell viability of patient-derived glioma lines,[4]; BT145 and BT147 (FIG. 13A),no effect on cell viability
same,cell viability of patient-derived glioma lines,"[4]; GB16, GB7, GB42 and BT147, 24 hr treatment (FIG. 13B)",no effect on cell viability
